# Where “and” joins values, the source holds several entries; their conditions need not be identical. Identical values can stand only once. Entries after “also recorded” stand apart in the source; their conditions may differ.
# Legend:
# Format in all cases: in vivo, human
# [1] = system: patients with advanced Alzheimer's disease; assay: Severe Impairment Battery (SIB) in double-blind, randomized, placebo-controlled trial; set-up: key to SIB Total LS Mean change from baseline (MMRM) / SIB Total LS Mean change (MMRM with memantine covariate) / SIB Delta from baseline, Mean (unadjusted): change from baseline in SIB total score; low scores = greater impairment; conditions: for SIB Total Difference vs. Placebo (MMRM) / SIB Total LS Mean change from baseline (MMRM): 20 μg iv; for SIB Delta from baseline, Mean (unadjusted): Low dose (20)
# Method: In a double-blind, randomized, placebo-controlled trial, bryostatin was administered by intravenous infusion (˜45 minutes) to patients with advanced Alzheimer's disease for 12 weeks at doses of 20 or 40 μg. Randomization was stratified at baseline by severe (MMSE-2, 4-9) and moderate (MMSE-2, 10-15) dementia, wherein MMSE-2 refers to Mini-Mental State Examination, version 2. The MMSE or Folstein test is a 30-point questionnaire that is used extensively in clinical and research settings to measure cognitive impairment. Low scores indicate greater impairment. Version 2 of the MMSE was published in 2010, expanding the original questionnaire's usefulness in populations with milder forms of cognitive impairment. […] Importantly, this cognitive improvement persisted and increased 30 days after all bryostatin dosing had been completed.
# (§1) Adults aged 55-85 with cognitive deficits present for at least 2 years, MMSE-2 of 4-15, inclusive, and a diagnosis of Alzheimer's dementia were randomly assigned to receive blinded intravenous infusions of bryostatin 24 μg or matching placebo at weeks 0 and 1. The 24 μg and 48 μg doses during the first two weeks of the 20 and 40 μg protocols respectively were considered to be “loading” doses thought to be beneficial from prior experience with Compassionate Use trial patients. Nelson et al., Alzheimers Dis. 2017 58: 521-535. In one arm, the two 24 μg doses were followed by 20 μg doses at weeks 5, 7, 9 and 11 with the Severe Impairment Battery (SIB) measured at baseline and weeks 5, 9, 13, and 15. In a second arm, the two 48 μg doses at weeks 0 and 1 were followed by 40 μg doses at weeks 5, 7, 9, and 11 with the SIB measured at baseline and weeks 5, 9, 13, and 15. The subjects were stratified by MMSE-2 in two strata: Stratum 1 (4-9) and Stratum 2 (10-15). The first primary endpoint was safety and tolerability, assessed by treatment emergent adverse events (TEAEs) with a sample size of 150 subjects randomized 1:1:1. Although efficacy was the secondary measure, the primary efficacy endpoint was SIB improvement at week 13 evaluated using a mixed model for repeated measures. A secondary efficacy endpoint was ADCS-ADL Sev. The primary safety population included all subjects who received at least 1 dose of study drug, and efficacy was evaluated in a modified intent to treat (mITT) population that received at least 1 dose of study drug and had at least one treatment evaluation. Efficacy was evaluated both as a primary end-point in the modified intent-to-treat (mITT) population and also as a primary end point in a Completers population that included all patients that completed the entire protocols as described above.
# The SIB efficacy measurement at 30 days (week 15) post dosing—after all dosing had been completed (last dose administered at week 11)—was a pre-specified exploratory endpoint. Week 15 results were only included for subjects who were not re-randomized. The mixed model assumes missing at random, but order of enrollment in the trial was not random. Since order of enrollment was not random, the assumption of missing at random is not met. For this reason, only including week 15 for those who were not re-randomized is an appropriate way to estimate week 15 results, but not an appropriate way to estimate results at the earlier visits. For this reason, estimates up through week 13 are from a mixed model that only included data through week 13 and the week 15 estimates are from a separate model. Results were generated using a mixed model with repeated measures predicting change from baseline in SIB Total Score as the response variable and using baseline score, baseline MMSE strata, treatment, visit (categorical), and visit (treatment) as predictors. […]
# [2] = system: patients with advanced Alzheimer's disease; assay: ADCS-ADL-SIV (secondary efficacy endpoint) in the same trial
# Method: as §1
# [3] = system: patients with advanced Alzheimer's disease; assay: Safety and tolerability (treatment emergent adverse events) in the same trial; conditions: 40 μg iv, 12 weeks
# Method: Adults aged 55-85 with cognitive deficits present for at least 2 years, MMSE-2 of 4-15, inclusive, and a diagnosis of Alzheimer's dementia were randomly assigned to receive blinded intravenous infusions of bryostatin 24 μg or matching placebo at weeks 0 and 1. The 24 μg and 48 μg doses during the first two weeks of the 20 and 40 μg protocols respectively were considered to be “loading” doses thought to be beneficial from prior experience with Compassionate Use trial patients. Nelson et al., Alzheimers Dis. 2017 58: 521-535. In one arm, the two 24 μg doses were followed by 20 μg doses at weeks 5, 7, 9 and 11 with the Severe Impairment Battery (SIB) measured at baseline and weeks 5, 9, 13, and 15. In a second arm, the two 48 μg doses at weeks 0 and 1 were followed by 40 μg doses at weeks 5, 7, 9, and 11 with the SIB measured at baseline and weeks 5, 9, 13, and 15. The subjects were stratified by MMSE-2 in two strata: Stratum 1 (4-9) and Stratum 2 (10-15). The first primary endpoint was safety and tolerability, assessed by treatment emergent adverse events (TEAEs) with a sample size of 150 subjects randomized 1:1:1. Although efficacy was the secondary measure, the primary efficacy endpoint was SIB improvement at week 13 evaluated using a mixed model for repeated measures. A secondary efficacy endpoint was ADCS-ADL Sev. […]
# [4] = Week 15 (30 days post dosing), Completer
# [5] = Week 15 (30 days post dosing), FAS
# [6] = 20 μg, Week 5, Completer, With Memantine
# [7] = 20 μg, Week 5, Completer, Without Memantine
# [8] = 20 μg, Week 5, FAS, With Memantine
# [9] = 20 μg, Week 5, FAS, Without Memantine
# [10] = 20 μg, Week 9, Completer, With Memantine
# [11] = 20 μg, Week 9, Completer, Without Memantine
# [12] = 20 μg, Week 9, FAS, With Memantine
# [13] = 20 μg, Week 9, FAS, Without Memantine
# [14] = 20 μg, Week 13, Completer, With Memantine
# [15] = 20 μg, Week 13, Completer, Without Memantine
# [16] = 20 μg, Week 13, FAS, With Memantine
# [17] = 20 μg, Week 13, FAS, Without Memantine
# [18] = 20 μg, Week 15, Completer, With Memantine
# [19] = 20 μg, Week 15, Completer, Without Memantine
# [20] = 20 μg, Week 15, FAS, With Memantine
# [21] = 20 μg, Week 15, FAS, Without Memantine
smiles,measurement,setting,value
"CCC/C=C/C=C/C(=O)O[C@H]1/C(=C/C(=O)OC)C[C@H]2C[C@H]([C@@H](C)O)OC(=O)C[C@H](O)C[C@@H]3C[C@H](OC(C)=O)C(C)(C)[C@](O)(C[C@@H]4C/C(=C/C(=O)OC)C[C@H](/C=C/C(C)(C)[C@]1(O)O2)O4)O3 [Bryostatin, bryostatin-1]",SIB versus baseline and placebo (in words),"[1]; 20 μg dose, throughout the 13-week trial",sustained improvement in SIB
same,SIB Total Difference vs. Placebo (MMRM),"[1]; Week 5, Completer",4.00
same,SIB Total LS Mean change from baseline (MMRM),"[1]; Week 5, Completer",1.67
same,SIB Total Difference vs. Placebo (MMRM),"[1]; Week 5, FAS",2.96
same,SIB Total LS Mean change from baseline (MMRM),"[1]; Week 5, FAS",1.18
same,SIB Total Difference vs. Placebo (MMRM),"[1]; Week 9, Completer",1.85
same,SIB Total LS Mean change from baseline (MMRM),"[1]; Week 9, Completer",1.28
same,SIB Total Difference vs. Placebo (MMRM),"[1]; Week 9, FAS",1.03
same,SIB Total LS Mean change from baseline (MMRM),"[1]; Week 9, FAS",0.94
same,SIB Total Difference vs. Placebo (MMRM),"[1]; Week 13, Completer",2.63
same,SIB Total LS Mean change from baseline (MMRM),"[1]; Week 13, Completer",1.51
same,SIB Total Difference vs. Placebo (MMRM),"[1]; Week 13, Completer, listed as bryostatin",2.6
same,SIB Total Difference vs. Placebo (MMRM),"[1]; Week 13, FAS",1.94
same,SIB Total LS Mean change from baseline (MMRM),"[1]; Week 13, FAS",1.16
same,SIB Total Difference vs. Placebo (MMRM),[1]; [4],4.09
same,SIB Total LS Mean change from baseline (MMRM),[1]; [4],1.96
same,SIB Total Difference vs. Placebo (MMRM),"[1]; Week 15 (30 days post dosing), Completer, listed as bryostatin",4.0 and 4.09
same,SIB Total Difference vs. Placebo (MMRM),[1]; [5],3.59
same,SIB Total LS Mean change from baseline (MMRM),[1]; [5],1.77
same,SIB Total Difference vs. Placebo (MMRM with memantine covariate),[1]; [6],2.94
same,SIB Total LS Mean change (MMRM with memantine covariate),[1]; [6],0.61
same,SIB Total Difference vs. Placebo (MMRM with memantine covariate),[1]; [7],5.38
same,SIB Total LS Mean change (MMRM with memantine covariate),[1]; [7],3.22
same,SIB Total Difference vs. Placebo (MMRM with memantine covariate),[1]; [8],1.96
same,SIB Total LS Mean change (MMRM with memantine covariate),[1]; [8],0.26
same,SIB Total Difference vs. Placebo (MMRM with memantine covariate),[1]; [9],4.48
same,SIB Total LS Mean change (MMRM with memantine covariate),[1]; [9],2.74
same,SIB Total Difference vs. Placebo (MMRM with memantine covariate),[1]; [10],0.90
same,SIB Total LS Mean change (MMRM with memantine covariate),[1]; [10],−0.16
same,SIB Total Difference vs. Placebo (MMRM with memantine covariate),[1]; [11],2.66
same,SIB Total LS Mean change (MMRM with memantine covariate),[1]; [11],3.34
same,SIB Total Difference vs. Placebo (MMRM with memantine covariate),[1]; [12],0.09
same,SIB Total LS Mean change (MMRM with memantine covariate),[1]; [12],−0.33
same,SIB Total Difference vs. Placebo (MMRM with memantine covariate),[1]; [13],2.08
same,SIB Total LS Mean change (MMRM with memantine covariate),[1]; [13],2.95
same,SIB Total Difference vs. Placebo (MMRM with memantine covariate),[1]; [14],0.56
same,SIB Total LS Mean change (MMRM with memantine covariate),[1]; [14],−0.39
same,SIB Total Difference vs. Placebo (MMRM with memantine covariate),[1]; [15],5.53
same,SIB Total LS Mean change (MMRM with memantine covariate),[1]; [15],4.22
same,SIB Total Difference vs. Placebo (MMRM with memantine covariate),[1]; [16],−0.14
same,SIB Total LS Mean change (MMRM with memantine covariate),[1]; [16],−0.60
same,SIB Total Difference vs. Placebo (MMRM with memantine covariate),[1]; [17],5.11
same,SIB Total LS Mean change (MMRM with memantine covariate),[1]; [17],3.83
same,SIB Total Difference vs. Placebo (MMRM with memantine covariate),[1]; [18],1.45
same,SIB Total LS Mean change (MMRM with memantine covariate),[1]; [18],−0.71
same,SIB Total Difference vs. Placebo (MMRM with memantine covariate),[1]; [19],6.36
same,SIB Total LS Mean change (MMRM with memantine covariate),[1]; [19],6.24
same,SIB Total Difference vs. Placebo (MMRM with memantine covariate),[1]; [20],0.79
same,SIB Total LS Mean change (MMRM with memantine covariate),[1]; [20],−0.83
same,SIB Total Difference vs. Placebo (MMRM with memantine covariate),[1]; [21],5.93
same,SIB Total LS Mean change (MMRM with memantine covariate),[1]; [21],5.88
same,"Mean slope of SIB over time, Weighted Slope","[1]; 20 μg, weighted by number of non-zero SIB scores, second column group (memantine exposed, stratum not given)",−0.099
same,SIB versus baseline and placebo (in words),[1]; 40 μg dose,lack of efficacy; also recorded: no SIB improvement
same,"SIB Delta from baseline, Mean (unadjusted)","[1]; Ave of Week 13 and 15, Memantine Exposed Patients, FAS",−0.727
same,"SIB Delta from baseline, Mean (unadjusted)","[1]; Ave of Week 13 and 15, Memantine Treatment-Naïve Patients, FAS",5.406
same,"SIB Delta from baseline, Mean (unadjusted)","[1]; Week 5, Memantine Exposed Patients, FAS",0.077
same,"SIB Delta from baseline, Mean (unadjusted)","[1]; Week 5, Memantine Treatment-Naïve Patients, FAS",3.444
same,"SIB Delta from baseline, Mean (unadjusted)","[1]; Week 9, Memantine Exposed Patients, FAS",−0.087
same,"SIB Delta from baseline, Mean (unadjusted)","[1]; Week 9, Memantine Treatment-Naïve Patients, FAS",3.467
same,"SIB Delta from baseline, Mean (unadjusted)","[1]; Week 13, Memantine Exposed Patients, FAS",−0.545
same,"SIB Delta from baseline, Mean (unadjusted)","[1]; Week 13, Memantine Treatment-Naïve Patients, FAS",4.500
same,"Treatment effect on SIB at 13/15 weeks from baseline (ANCOVA coefficient, 20 μg vs placebo)","[1]; Memantine Exposed, adjusted for Base SIB, MMSE-2",−0.620
same,"Treatment effect on SIB at 13/15 weeks from baseline (ANCOVA coefficient, 20 μg vs placebo)","[1]; Memantine Exposed, adjusted for Baseline SIB",−0.531
same,"Treatment effect on SIB at 13/15 weeks from baseline (ANCOVA coefficient, 20 μg vs placebo)","[1]; Memantine Naïve, adjusted for Base SIB, MMSE-2",5.923
same,"Treatment effect on SIB at 13/15 weeks from baseline (ANCOVA coefficient, 20 μg vs placebo)","[1]; Memantine Naïve, adjusted for Baseline SIB",5.426
same,SIB improvement (in words),"[1]; patients on memantine, week 13 or 15",no SIB improvement
same,"ADCS-ADL, subgroups with and without memantine as background SOC therapy (in words)",[2]; 20 μg,not significantly different above placebo
same,ADCS-ADL difference from placebo,"[2]; 20 μg, completers group",1.6
same,ADCS-ADL difference from placebo,"[2]; 20 μg, mITT group",1.4
same,ADCS-ADL efficacy (in words),[2]; 40 μg dose,significant for the 20 μg but not the 40 μg dose
same,Safety results,[3],more adverse events

# From patent US11045447B2, “Methods for inducing synaptogenesis with synaptic growth factor activating compounds” ([…], INC., priority 2018, dated 2021)
